Test results published in patent publication US20210338699A1 (priority 2018, published 2021).
Read-outs that look alike come from different tables or passages of the source.

What was measured:
[1] = tested on: blood vessel permeability; conditions: mouse, in vivo; cited from earlier work
[2] = tested on: fibroblasts from WT and ROCK1^−/− mice; assay: Ponatinib treatment of WT and ROCK1−/− fibroblasts; type: cell-based
cells expressing BCR-ABL = assay: Proliferation by [3H] thymidine incorporation, BCR-ABL cells; type: cell-based; conditions: absence of growth factors, 48 hours
Description: (§1) FIG. 9A. […] After 48 hours, proliferation was evaluated by [^3H] thymidine incorporation.
FIG. 12A. Graph illustrating the effect of ROCK inhibitor (H-1152) alone or in combination with imatinib on proliferation of myeloid cells expressing BCR-ABL.
(§2) In order to illustrate the imatinib resistance, very high dose of imatinib were used in these cells.
Referring now to FIG. 11, primary CML patient derived cells were examined and a human cell line bearing BCR-ABL (K562) was used as a positive control.

[3] = tested on: cells expressing FLT3-ITD (FLT3N51); assay: Proliferation by [3H] thymidine incorporation, FLT3-ITD cells; type: cell-based; conditions: absence of growth factors, 48 hours
Description: as §1, §2

leukemic mice = assay: Survival of leukemic mice treated with ROCK inhibitors; type: in vivo
From the text: Increased ROCK activity is associated with cardiovascular disease (CVD).

ROCK = conditions: cited from earlier work
WT and ROCK1^−/− mice = assay: Serial doxorubicin administration, DOX-induced CTX in WT and ROCK1−/− mice
Description: FIG. 1A. Schematic diagram representing serial doxorubicin administration protocol. WT and ROCK1^−/− mice received three serial injections weekly of normal saline (NS) or doxorubicin (DOX) (8 mg/kg). […]
The generation of ROCK1 deficient mice have been previously reported. […] To assess if a deficiency of ROCK1 protects the mice from DOX induced CTX, control (WT) and ROCK1^−/− mice were injected with 8 mg/kg of DOX or normal saline (NS) once weekly for 3 consecutive weeks, for a cumulative dose of 24 mg/kg (FIG. 1A). This treatment is based on the previously described approach, which causes progressive cardiac dysfunction within three weeks after the initial injection, a scenario that mimics early-onset of DOX-induced CTX in humans.
To elucidate the role of ROCK1 in DOX induced CTX, ROCK1^−/− mice were treated with DOX in parallel to the WT mice.
During autophagy, the cytosolic form of microtubule-associated protein 1 light chain 3 (LC3-I) is conjugated to phosphatidylethanolamine to form LC3-II, which is recruited to autophagosomal membranes.

[4] = tested on: MHC-Cre/ROCK1^fl/fl and ROCK1^fl/fl mice; assay: DOX-induced CTX in cardiomyocyte-specific ROCK1 knockout mice; type: in vivo; conditions: three weekly injections 8 mg/kg, day 21
Description: FIG. 7A. Graph illustrating the percent fractional shortening (FS) of cardiomyocyte-specific ROCK1 knockout mice (MHC-Cre/ROCKfl/fl) and ROCK1fl/fl mice (8-9 weeks old) after receiving three serial injections weekly of NS or DOX (8 mg/kg). Cardiac function was measured by echocardiography analysis on day 21 after the initial injection.
FIG. 7B. Graph illustrating total TUNEL positive nuclei per 10^5 total nuclei in ventricular myocardium from MHC-Cre/ROCK^fl/fl and ROCK1^fl/fl mice hearts on day 21. N=4-6 in each group.
FIG. 7C. Representative heart sections stained with picrosirius red/Fast green illustrating the collagen deposition in ventricular myocardium of MHC-Cre/ROCK^fl/fl and ROCK1^fl/fl mice hearts on day 21. N=4-6 in each group.
To determine if ROCK1 in cardiomyocytes has a role in DOX-induced CTX, cardiomyocyte-specific ROCK1 knockout mice were generated. In myosin heavy chain (MHC)-Cre/ROCK1^fl/fl mice, the ROCK1 protein is truncated only in cardiomyocytes from residue 137 to the end of the protein (FIGS. 6A, 6B). Similar to ROCK1^−/− mice in which the ROCK1 protein is also truncated from residue 180 to the end of the protein in all cells, the conditional targeting approach results in the removal of a large portion of the kinase domain and amino acids from the coiled-coil and the PH domains. […]

AML mice = tested on: AML mice
From the text: Three different sources of donor cells will be utilized: 1) WT LSK cells; 2) Tet2^−/−FLT3^ITD/+ LSK cells; and 3) Dnmt3a^−/−FLT3^ITD/+ LSK cells. Lethally irradiated CD45.1^+ (BoyJ) recipient mice of the above described 5 genotypes will be transplanted with CD45.2^+WT, Tet2^−/−FLT3^ITD/+ or Dnmt3a^−/−FLT3^TID/+ leukemic cells along with CD45.1^+ normal cells in 1:1 ratio pooled from 2-3 mice of either gender at 4 months of age. 2 months posttransplant, the development of AML in these mice will be assessed by analysing peripheral blood. Mice will be randomly assigned into two groups: 1) vehicle; and 2) intraperitoneal injection (IP) of DOX 8 mg/kg/week for 3 weeks. This treatment is based on the previously described approach. […] Alternatively, mice will be subjected to 5 IP injections of DOX (5 mg/Kg) with one-week intervals for a cumulative dose of 25 mg/kg over a period of 5 weeks. […] Relapse of these mice will be monitored closely and DOX will be re-administered and then be compared for CTX.

[5] = tested on: cancer patients including AML patients; conditions: within 9 years of DOX treatment; cited from earlier work

Compound: Cc1nc(Nc2ncc(C(=O)Nc3c(C)cccc3Cl)s2)cc(N2CCN(CCO)CC2)n1 [dasatinib]
- amount of Evans Blue in the small intestine [1]: significantly increases

Compound: Cc1ccc(C(=O)Nc2ccc(CN3CCN(C)CC3)c(C(F)(F)F)c2)cc1C#Cc1cnc2cccnn12 [ponatinib]
- cell survival ([2]; ROCK1−/− cells): enhanced survival
- cleaved caspase 3/8 levels ([2]; ROCK1−/− cells): profound decrease
- ponatinib induced cell shape changes ([2]; ROCK1−/− fibroblasts): not the case
- cleaved caspase 8/3 levels ([2]; WT fibroblasts): profound increase
- ponatinib induced cell shape changes ([2]; WT fibroblasts, increasing doses): significant changes

Compound: C[C@@H](N)[C@H]1CC[C@H](C(=O)Nc2ccncc2)CC1 [Y27632]
- constitutive growth (thymidine incorporation) (cells expressing BCR-ABL): similarly repress the growth
- constitutive growth (thymidine incorporation) [3]: similarly repress the growth

Compound: O=S(=O)(c1cccc2cnccc12)N1CCCNCC1 [Fasudil]
- constitutive growth (thymidine incorporation) (cells expressing BCR-ABL): similarly repress the growth
- constitutive growth (thymidine incorporation) [3]: similarly repress the growth
- survival of leukemic mice (leukemic mice; compared to vehicle treated): significant enhancement in survival
- anti-leukemic activity (leukemic mice; in vivo models of AML): potent anti-leukemic activity

Compound: CC(C)c1c(C(=O)Nc2ccccc2)c(-c2ccccc2)c(-c2ccc(F)cc2)n1CC[C@@H](O)C[C@@H](O)CC(=O)O [atorvastatin]
- ROCK activity (ROCK; patients with atherosclerosis): inhibits ROCK activity

Compound: COc1cccc2c1C(=O)c1c(O)c3c(c(O)c1C2=O)C[C@@](O)(C(=O)CO)C[C@@H]3O[C@H]1C[C@H](N)[C@H](O)[C@H](C)O1 [DOX, doxorubicin]
- mortality rate (WT and ROCK1^−/− mice; ROCK1 deficient mice, at 3 months): 55%
- mortality rate (WT and ROCK1^−/− mice; ROCK1 deficient mice, at 6 months): 70%
- mortality rate (WT and ROCK1^−/− mice; ROCK1−/− mice, over 6 weeks after initial DOX injection): about 10%
- death of all treated mice (WT and ROCK1^−/− mice; WT mice): died within 3 months
- mortality rate (WT and ROCK1^−/− mice; WT mice, over 6 weeks after initial DOX injection): about 70%
- Bax levels (WT and ROCK1^−/− mice; mouse, in vivo): increased
- autophagosomes by transmission electron microscopy (WT and ROCK1^−/− mice; mouse, in vivo): more accumulation of autophagosomes
- body weight (WT and ROCK1^−/− mice; mouse, in vivo): significant impact
- cardiac fibrosis (WT and ROCK1^−/− mice; mouse, in vivo): increased
- cardiac function (WT and ROCK1^−/− mice; mouse, in vivo): preserved
- cardiac function (percent fractional shortening) (WT and ROCK1^−/− mice; mouse, in vivo): impaired
- cardiomyocyte size (WT and ROCK1^−/− mice; mouse, in vivo): significant impact
- characteristics of DOX-induced CTX (TUNEL, Bax translocation, fibrosis) (WT and ROCK1^−/− mice; mouse, in vivo): effectively blocked
- heart weight (WT and ROCK1^−/− mice; mouse, in vivo): significant impact
- mitochondrial translocation of Bax (WT and ROCK1^−/− mice; mouse, in vivo): increased
- number of TUNEL positive cardiac cells (WT and ROCK1^−/− mice; mouse, in vivo): significantly increased
- DOX-induced LV dilation (WT and ROCK1^−/− mice; mouse, in vivo, 8 mg/kg): blocked
- LV contractile function (LV fractional shortening, FS) (WT and ROCK1^−/− mice; mouse, in vivo, 8 mg/kg): reduced
- left ventricular (LV) dilation (LVESD, LVEDD) by echocardiogram (WT and ROCK1^−/− mice; mouse, in vivo, 8 mg/kg): reproducible and progressive left ventricular (LV) dilation
- cardiotoxic events (cardiac dysfunction, TUNEL positivity, cardiac fibrosis) ([4]; MHC-Cre/ROCK1fl/fl mice): significantly reduced
- cardiotoxic events (cardiac dysfunction, TUNEL positivity, cardiac fibrosis) ([4]; ROCK1fl/fl hearts): induced cardiac dysfunction, increased TUNEL positivity and cardiac fibrosis
- AML response (AML mice; IP 8 mg/kg/week for 3 weeks): complete remission of AML
- CTX (AML mice; mouse, in vivo, ip, 8 mg/kg): severe CTX including dysfunction
- patients with clinical or sub-clinical manifestation of heart failure [5]: 6-18%

Compound: [N]=O [NO, nitric oxide]
- ROCK activity (ROCK; patients with CVD, exogenous NO): inhibits ROCK activity
